Activity calls are given as the source filed them. The calls are words filed in the database; no cut-off is given here.
How the values were obtained:
[1] = biological target: T1, Peroxisome proliferator-activated receptor gamma (Homo sapiens, UniProt P37231); test: Displacement of [3H2]nTZD3 from GST-tagged human recombinant PPARgamma by scintillation proximity assay
T1 sequence (P37231 whole entry): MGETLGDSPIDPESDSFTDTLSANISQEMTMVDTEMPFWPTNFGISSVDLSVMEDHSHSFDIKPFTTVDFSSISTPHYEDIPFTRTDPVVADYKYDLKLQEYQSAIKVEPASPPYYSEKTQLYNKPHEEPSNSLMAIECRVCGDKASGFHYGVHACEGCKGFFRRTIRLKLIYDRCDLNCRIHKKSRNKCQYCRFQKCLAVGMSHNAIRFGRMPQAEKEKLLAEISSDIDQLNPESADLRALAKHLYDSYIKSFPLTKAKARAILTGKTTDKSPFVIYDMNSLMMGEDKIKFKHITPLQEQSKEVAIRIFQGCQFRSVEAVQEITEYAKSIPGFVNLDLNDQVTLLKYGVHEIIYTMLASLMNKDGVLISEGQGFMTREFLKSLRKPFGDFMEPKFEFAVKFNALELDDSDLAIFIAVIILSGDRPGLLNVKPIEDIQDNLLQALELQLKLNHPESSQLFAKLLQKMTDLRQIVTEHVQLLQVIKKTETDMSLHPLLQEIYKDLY

[2] = biological target: T2, Peroxisome proliferator-activated receptor alpha (Homo sapiens, UniProt Q07869)
T2 sequence (Q07869 whole entry): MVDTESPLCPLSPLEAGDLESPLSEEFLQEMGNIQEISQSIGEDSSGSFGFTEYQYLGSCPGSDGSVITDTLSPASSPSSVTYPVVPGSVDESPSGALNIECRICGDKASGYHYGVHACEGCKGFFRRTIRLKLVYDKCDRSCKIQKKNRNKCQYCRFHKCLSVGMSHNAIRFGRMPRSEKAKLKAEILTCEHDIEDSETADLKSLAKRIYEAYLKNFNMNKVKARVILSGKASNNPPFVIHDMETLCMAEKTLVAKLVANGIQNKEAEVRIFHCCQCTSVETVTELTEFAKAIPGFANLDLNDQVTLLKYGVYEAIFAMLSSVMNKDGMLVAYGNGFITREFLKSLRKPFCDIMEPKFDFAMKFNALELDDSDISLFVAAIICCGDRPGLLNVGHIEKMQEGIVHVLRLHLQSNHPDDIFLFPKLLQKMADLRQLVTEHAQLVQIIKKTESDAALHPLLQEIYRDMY
Description: (§1) Displacement of [3H2]nTZD3 from GST-tagged human recombinant PPARalpha by scintillation proximity assay

[3] = Cytotoxicity against human MCF7 cells expressing human PPARgamma assessed as cell survival at 5 uM after 7 days by sulforhodamine B assay
[4] = biological target: T3, Peroxisome proliferator-activated receptor gamma (Homo sapiens) (UniProt P37231); test: Activation of human PPAR-gamma-dependent transcription expressed in human MCF7 cells assessed as induction of PPRE-reporter gene expression at 1 uM after 24 hrs by dual luciferase reporter gene assay; type: cell-based
T3 sequence (whole entry): T1 sequence (P37231 whole entry)

[5] = biological target: T2, Peroxisome proliferator-activated receptor alpha; remark: listed apart in the source
Description: as §1

| Compound | IC50 [1] | IC50 [2] | viability at 168 h, 5 µM [3] | Activity [4] | IC50 [5] |
| --- | --- | --- | --- | --- | --- |
| CCCCCCCCCCCC/C=C(\CCCC(=O)O)[N+](=O)[O-] | 1680 nM | > 15000 nM |  |  |  |
| CCCCCCCC/C=C(\CCCCCCCC(=O)O)[N+](=O)[O-] [NITROLEIC ACID] | 980 nM | > 15000 nM | < 5% |  |  |
| CCCCC/C=C(\CCCCCCCCCCC(=O)O)[N+](=O)[O-] | 39 nM | 1600 nM |  |  |  |
| CCCCC/C(=C\CCCCCCCCCCC(=O)O)[N+](=O)[O-] | 190 nM | 1100 nM |  |  |  |
| CCCCCCCC/C(=C\CCCCCCCC(=O)O)[N+](=O)[O-] [CXA-10] | 1610 nM | > 15000 nM |  |  |  |
| CCCCCCCCCCCC/C(=C\CCCC(=O)O)[N+](=O)[O-] | 1720 nM | > 15000 nM |  |  |  |
| CCCCC/C=C(\C/C=C\CCCCCCCC(=O)O)[N+](=O)[O-] |  |  |  | Active | 9600 nM |
| CCCCCC/C(=C\CCCCCCCC(=O)O)[N+](=O)[O-] | 630 nM | > 15000 nM |  |  |  |
| CCCCCC/C=C(\CCCCCCCC(=O)O)[N+](=O)[O-] | 830 nM | > 15000 nM |  |  |  |

Reference: ChEMBL document CHEMBL1151944, “Activation of peroxisome proliferator-activated receptor gamma (PPARgamma) by nitroalkene fatty acids: importance of nitration position and degree of unsaturation” (J Med Chem, 2009)
